Test results as given in PubChem BioAssay (NCI).
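All cell lines were grown in 96-well plates and treated with compound for 48 hours. GI50 = concentration required for 50% inhibition of growth. TGI denotes the concentration required for complete inhibition of growth.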

What was measured:
Assay in all cases: NCI tumour cell line growth inhibition, 48 h
MDA-MB-435 = system: MDA-MB-435
MDA-MB-231 breast = system: MDA-MB-231 breast
HCT-116 colon = system: HCT-116 colon
NCI-H226 lung = system: NCI-H226 lung
OVCAR-4 ovarian = system: OVCAR-4 ovarian
SK-MEL-28 melanoma = system: SK-MEL-28 melanoma
CAKI-1 renal = system: CAKI-1 renal
PC-3 prostate = system: PC-3 prostate
SW-620 colon = system: SW-620 colon
HOP-92 NSCLC = system: HOP-92 NSCLC

SMILES	GI50 (MDA-MB-435)	TGI (MDA-MB-435)	GI50 (MDA-MB-231 breast)	TGI (MDA-MB-231 breast)	GI50 (HCT-116 colon)	TGI (HCT-116 colon)	GI50 (NCI-H226 lung)	TGI (NCI-H226 lung)	GI50 (OVCAR-4 ovarian)	TGI (OVCAR-4 ovarian)	GI50 (SK-MEL-28 melanoma)	TGI (SK-MEL-28 melanoma)	GI50 (CAKI-1 renal)	TGI (CAKI-1 renal)	GI50 (PC-3 prostate)	TGI (PC-3 prostate)	GI50 (SW-620 colon)	TGI (SW-620 colon)	TGI (HOP-92 NSCLC)	GI50 (HOP-92 NSCLC)
CN(CCOc1ccc(C#N)cc1)CCOc1ccc(C#N)cc1	78.8 µM	> 100 µM	> 100000 nM	> 100 µM	60.5 µM	> 100 µM	> 100 µM	> 100 µM	67.5 µM	> 100 µM	> 100 µM	> 100 µM	74.6 µM	> 100 µM	41.6 µM	> 100 µM	57500 nM	> 100 µM		
CCCCCCCCCCCCCC(=O)CBr		32 µM		34.2 µM		17 µM		35.1 µM		28.8 µM		30.7 µM		3.13 µM		16.3 µM		30.2 µM	6.43 µM	
Cc1cc(=O)oc2cc3c(cc12)Oc1ccccc1O3						> 100 µM		> 100 µM		> 100 µM		> 100 µM						> 100 µM	> 100 µM	
COc1ccc2c(c1)OC(N(C(C)=O)C(C)=O)=C(C#N)C2c1ccc(F)cc1 (centres undefined)			2400 nM	> 100 µM	1.26 µM	> 100 µM	25.5 µM	> 100 µM	7.93 µM	> 100 µM	9.97 µM	> 100 µM			2.2 µM	> 100 µM	553 nM	> 100 µM	90.4 µM	10.9 µM
COc1ccc2oc3cccc(NCCN(C)C)c3c(=O)c2c1						19.8 µM		32 µM		27.7 µM		32.9 µM		18.2 µM				15.6 µM	27.9 µM	
COc1ccc(-c2cncn2-c2ccc(OC)cc2)cc1	3.62 µM	14.1 µM	21300 nM	71 µM	20.5 µM	44 µM	22.5 µM	98.3 µM	28.9 µM	> 100 µM			20.6 µM	44 µM	30 µM	> 100 µM	26100 nM	> 100 µM	84.8 µM	23 µM
O=C(CSC(=S)N1CCOCC1)Nc1nc2c(s1)CCCC2						> 100 µM		> 100 µM		> 100 µM		> 100 µM							96.2 µM	
CCCCn1cnc2c(SC)ncnc21		> 100 µM		> 100 µM		> 100 µM				> 100 µM		> 100 µM		> 100 µM		> 100 µM		> 100 µM	> 100 µM	
O=C1CC[C@@H](S(=O)(=O)c2ccccc2)[C@@H](/C=C/c2ccccc2)O1						> 100 µM		> 100 µM		> 100 µM		> 100 µM						> 100 µM		
COc1cc(/C=C/C(=O)c2sc(Nc3ccccc3)nc2C)ccc1O												> 100 µM		> 100 µM				> 100 µM	> 100 µM	
O=c1cc(-c2ccccc2)c2cc3c(=O)ccoc3cc2o1						> 100 µM		> 100 µM		> 100 µM		> 100 µM						> 100 µM		
Clc1nc(Cl)c2c(ncn2C/C=C\Cn2cnc3c(Cl)nc(Cl)nc32)n1	1.93 µM	4.51 µM	1880 nM	3.65 µM			1.76 µM	3.84 µM	1.73 µM	3.28 µM	1.66 µM	3.02 µM	1.63 µM	3.83 µM	2.31 µM	5.58 µM	776 nM	2.12 µM	3.58 µM	1.89 µM
CC(=O)c1cc([N+](=O)[O-])ccc1OCC(=O)O						> 100 µM		> 100 µM		> 100 µM		> 100 µM		> 100 µM				> 100 µM	> 100 µM	
Cn1ccnc1C(=O)/C=C/c1ccc(CC(=O)Nc2ccccc2)cc1	4.3 µM	13.7 µM	2370 nM	9.61 µM	1.68 µM	5.13 µM	8.59 µM	> 25 µM	4.12 µM	> 25 µM	5.69 µM	17.8 µM			3.29 µM	8.55 µM	2750 nM	8.81 µM	> 25 µM	6.63 µM
N#C/C(=C\c1cccc(O)c1)C(N)=O						> 100 µM		> 100 µM		> 100 µM		> 100 µM		> 100 µM				> 100 µM	> 100 µM	
COc1cccc(C2c3cc4c(cc3OC(O)(CO)C2C(=O)O)OCO4)c1 (centres undefined) (tested in a mixture with another compound)						> 100 µM		> 100 µM		> 100 µM		79.8 µM						> 100 µM	79.9 µM	
CC1S(=O)(=O)OCCOS1(=O)=O						> 100 µM		> 100 µM		> 100 µM		> 100 µM		> 100 µM				> 100 µM	> 100 µM	
N[C@H](C(=O)O)[C@H](Cl)CC(=O)O						> 100 µM		> 100 µM		> 100 µM		> 100 µM		> 100 µM				> 100 µM	> 100 µM	
O=C(CN1CCN(c2ccccc2)CC1)N1CCc2c([nH]c3ccccc23)C1c1cccnc1 (centres undefined)						21.3 µM		> 100 µM		> 66.8 µM		> 100 µM		> 72.6 µM				> 100 µM	> 66.3 µM	
CCOC(=O)NN1C(=O)C(=P(c2ccccc2)(c2ccccc2)c2ccccc2)C(C(=O)OCC)=C1C						> 100 µM		> 100 µM		> 100 µM				> 100 µM				> 100 µM	> 100 µM	
CC(=O)n1c2ccccc2c2nc3nc(Oc4ccc(C)cc4)c4ccccc4c3cc21						> 100 µM		> 100 µM		> 100 µM		> 100 µM		> 100 µM				> 100 µM		
O=C(O)c1cc(=O)c2[nH]c3ccccc3c2s1										> 100 µM		> 100 µM		> 100 µM				> 100 µM	> 100 µM	
CCCCCCCCCCCCCCCCCCCCCC(=O)Nc1ccn(C2OC(CO)C(O)C2O)c(=O)n1 (centres undefined)						> 100 µM		> 100 µM		> 100 µM		> 100 µM		> 100 µM				> 100 µM	> 100 µM	
